Source: a melting point compilation (Tetko et al.)

`[O-][P+](c1ccccc1)(c1ccccc1)C1c2ccccc2Oc2ccccc21` gave a melting point of 161 °C.
With `Clc1nnnn1-c1ccccc1` the melting point was 123 °C.
With `CC(=O)Nc1ccc(N=Nc2ccc([N+]([O-])=Nc3ccc(NC(C)=O)cc3)cc2)cc1` the melting point was 317 °C.
`Cc1cc2c(c(C)c1C)CC2=O` gave a melting point of 86 °C.
With `NC(CO)(Cc1ccccc1)C(=O)O` (racemic) the melting point was 245 to 263 °C.
For `O=c1ccc(=O)[nH][nH]1`, the melting point was 306 °C.
With `COc1cccc(F)c1C#N` the melting point was 103 °C.
`FC(F)(F)c1nnc(S)n1-n1cccc1` showed a melting point of 165 °C.
Compound `O=C1CCCCCO1` has a melting point of -1 °C.
`Cn1c(=O)c(C2=NNC(=O)C2=Cc2c(O)ccc3ccccc23)c(O)c2ccccc21` showed a melting point of 285 °C.
`N#Cc1c(C(F)(F)F)cc(-c2cccnc2)[nH]c1=O` showed a melting point of 280 to 281 °C.
`O=[N+]([O-])c1ccc2c(c1)=NC(c1cccc(C3N=c4cc([N+](=O)[O-])ccc4=C3O)c1)C=2O` (stereo not drawn) gave a melting point of 266 °C.
Compound `CCc1cc2c(cc1C(C)=O)C(C)(C)CCC2(C)C` has a melting point of 46.5 °C.
In the case of `O=C(O)COc1cc(Cl)c(Cl)cc1Cl`, the melting point is reported as 156 °C.
`Clc1ccc2c(c1)oc1c(Cl)c(Cl)cc(Cl)c12` gave a melting point of 190 °C.
`CCOC(=O)C=C1SC(N2CCCCC2)C(=O)N1C` (stereo not drawn) gave a melting point of 140 °C.
`O=Cc1c(Sc2ccc(Cl)cc2)nc2sccn12` showed a melting point of 139 to 141 °C.
`COc1ccc2c(c1)CCC2=O` showed a melting point of 109 °C.
With `CN1CCN(Cc2cccc(CO)c2)CC1` the melting point was 51 to 52 °C.
With `Cc1nccn1C` the melting point was 37 to 39 °C.
With `COC(=O)c1scc(S(=O)(=O)C(C)C)c1N` the melting point was 139 to 143 °C.
For `CCCCCCCC(=O)c1ccc(NC(C)=O)cc1`, the melting point was 123 °C.
In the case of `O=C(O)C1OC(C(=O)O)C(C(=O)O)C1C(=O)O` (stereo not drawn), the melting point is reported as 205 to 210 °C.
With `C=CCn1c(SC)nc2ccccc2c1=O` the melting point was 75 to 77 °C.
In the case of `c1ccc2c(c1)C1c3ccccc3C2c2ccccc21`, the melting point is reported as 254 °C.
Compound `CCCCOc1ccc(N=Nc2ccc(N)nc2N)cn1` has a melting point of 129 °C.
Compound `O=C(O)CSC(=S)SCC(=O)O` has a melting point of 170 to 175 °C.
`COc1ccc(CCCO)cc1` showed a melting point of 26 °C.
Compound `Cc1cc[nH]n1` has a melting point of 36.5 °C.
Compound `O=[N+]([O-])c1ccc2c(c1)=[N+]([O-])C1(CCCC1)[N+]=2[O-]` has a melting point of 148 to 150 °C.
For `N=C(N)NCC(O)CC(O)(C(=O)O)C1OC(n2cc(CO)c(N)nc2=O)C=CC1NC(=O)C(N)CO` (stereo not drawn), the melting point was over 300 °C.
With `CC1=NN(CN2CCCCC2)C(=O)/C1=N\Nc1cccc(O)c1` the melting point was 204 to 205 °C.
`CCCCN(CCCC)C(=O)COC(=O)c1ccccc1` showed a melting point of 25 °C.
In the case of `O=[N+]([O-])c1cc([N+](=O)[O-])c(C(Br)C(Br)c2ccccc2)cc1/C=C\c1ccccc1` (stereo not drawn), the melting point is reported as 212 °C.
With `NC(=O)C(Cc1ccccc1)NC(=O)OCc1ccccc1` (stereo not drawn) the melting point was 162 to 164 °C.
`Cc1cc(C(=O)O)n(C(C)(C)C)n1` showed a melting point of 149 to 153 °C.
Work on `NC(=O)c1cnn(CCO)c1N` yielded a melting point of 239 °C.
With `CC(=O)OC1=C(C(C)C)C(=O)C2=C(C1=O)C1(C)CCCC(C)(C)C1C(OC(C)=O)C2OC(C)=O` (stereo not drawn) the melting point was 89 °C.
`CCCOC(=O)C(C)c1ccc(-c2ccccc2)c(F)c1` (stereo not drawn) gave a melting point of over 20 °C.
`COC(=O)C1(S(=O)(=O)c2ccc(Br)cc2)CCCCC1` showed a melting point of 112 °C.
With `Cc1c(COC(=O)C2C(C=C(Cl)C(F)(F)F)C2(C)C)cccc1-c1ccccc1` (stereo not drawn) the melting point was 79.6 °C.
Work on `CCCCC(=O)NN` yielded a melting point of 60 °C.
For `CCCCF`, the melting point was -134 °C.
Work on `CCCN(CCC)c1c([N+](=O)[O-])cc(C(F)(F)F)cc1[N+](=O)[O-]` yielded a melting point of 49 °C.
Work on `Cc1ccc(NN=C2C(=O)NN=C2C(F)(F)F)cc1` yielded a melting point of 230 °C.
`Cc1c(C(=O)O)nnn1-c1cccc(C(F)(F)F)c1` gave a melting point of 155 to 156 °C.
`Cn1c(=O)c2[nH]c(Cl)nc2n(C)c1=O` showed a melting point of 290 °C.
With `Cc1ccc(-c2ccc(C=CC(=O)c3ccco3)o2)cc1` the melting point was 110 to 111 °C.
